Data from patent US20240158446A1, “CYCLIC COMPOUND HAVING SELECTIVE INHIBITORY ACTION ON KRAS OVER HRAS AND NRAS” (CHUGAI SEIYAKU KABUSHIKI KAISHA, priority 2021, published 2024).
*1 amine or outer side, *2 acyl side, *3 side chain or, on linkers, in order; H or OH if unused. Where a SMILES comes first, the peptide text is derived from it. Bridges are numbered along the chain shown (N, C = ends). [ ]: non-standard residue; d: D form. The star is where a group is joined. hPhe(3-Cl-4-CF3) = N[C@@H](CCc1ccc(C(F)(F)F)c(Cl)c1)C(=O)O; X34 = Cc1ccc(C[C@@H](C(=O)[*:2])N(CCC(C)(C)C)[*:1])cc1; NPrPhe(4-CF3) = CCCN[C@@H](Cc1ccc(C(F)(F)F)cc1)C(=O)O; NEtPhe(4-CF3) = CCN[C@@H](Cc1ccc(C(F)(F)F)cc1)C(=O)O; Morpholine(3S-CO) = O=C(O)[C@@H]1COCCN1; NMeGly(cPent) = CN[C@H](C(=O)O)C1CCCC1; X44 = CC1(C)CN([*:1])[C@@H]1C(=O)[*:2]; Gly(cPent) = N[C@H](C(=O)O)C1CCCC1; Hyp = O=C(O)[C@@H]1C[C@@H](O)CN1; NMeD = CN[C@@H](CC(=O)O)C(=O)O; NMeL = CN[C@@H](CC(C)C)C(=O)O; Morpholide = C1CN(*)CCO1; NMeA = CN[C@@H](C)C(=O)O; Ac5c = NC1(C(=O)O)CCCC1; Aze = O=C(O)[C@@H]1CCN1; Ac3c = NC1(C(=O)O)CC1; Sar = CNCC(=O)O

What was measured:
[1] = biological target: GDP-bound NRAS wild-type protein (Homo sapiens, UniProt P01111); assay: Binding to NRAS by surface plasmon resonance (SPR), Single Cycle Kinetics; conditions: for NRAS/KRAS (ratio of KD value for NRAS to KD value for KRAS) / NRAS/KRAS (ratio of KD value with respect to NRAS to KD value with respect to KRAS): SPR, GDP-bound NRAS wild-type protein vs GDP-bound KRAS wild-type protein
[2] = biological target: GDP-bound HRAS wild-type protein (Homo sapiens, UniProt P01112); assay: Binding to HRAS by surface plasmon resonance (SPR), Single Cycle Kinetics; conditions: for HRAS/KRAS (ratio of KD value for HRAS to KD value for KRAS) / HRAS/KRAS (ratio of KD value with respect to HRAS to KD value with respect to KRAS): SPR, GDP-bound HRAS wild-type protein vs GDP-bound KRAS wild-type protein
[3] = tested on: human lung cancer strain NCI-H441;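 also: cell proliferation inhibition after four days measured by CellTiter-Glo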

Chain of GDP-bound NRAS wild-type protein (P01111 whole entry): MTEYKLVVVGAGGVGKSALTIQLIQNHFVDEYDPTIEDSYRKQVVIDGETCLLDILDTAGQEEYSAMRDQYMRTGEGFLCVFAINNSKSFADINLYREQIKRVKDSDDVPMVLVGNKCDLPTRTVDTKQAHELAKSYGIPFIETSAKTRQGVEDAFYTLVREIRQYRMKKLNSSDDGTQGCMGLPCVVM
Chain of GDP-bound HRAS wild-type protein (P01112 whole entry): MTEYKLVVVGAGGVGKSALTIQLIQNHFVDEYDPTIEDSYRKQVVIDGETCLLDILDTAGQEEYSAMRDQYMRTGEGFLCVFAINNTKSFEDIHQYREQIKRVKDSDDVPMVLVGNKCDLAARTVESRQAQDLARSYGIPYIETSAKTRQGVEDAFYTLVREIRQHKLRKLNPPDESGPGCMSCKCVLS

Row | IC50 [3] [nM] | Compound | NRAS/KRAS (ratio of KD value for NRAS to KD value for KRAS) [1] | HRAS/KRAS (ratio of KD value for HRAS to KD value for KRAS) [2] | NRAS/KRAS (ratio of KD value with respect to GDP-bound NRAS wild-type protein to KD value with respect to KRAS) ([1]; SPR KD ratio NRAS/KRAS, class symbols) | HRAS/KRAS (ratio of KD value with respect to GDP-bound HRAS wild-type protein to KD value with respect to KRAS) ([2]; SPR KD ratio HRAS/KRAS, class symbols) | NRAS/KRAS (ratio of KD value with respect to NRAS to KD value with respect to KRAS) [1] | HRAS/KRAS (ratio of KD value with respect to HRAS to KD value with respect to KRAS) [2]
1 | 24 | CC[C@H](C)[C@@H]1NC(=O)[C@H](CC(C)C)N(C)C(=O)C[C@@H](C(=O)N2CCOCC2)N(C)C(=O)[C@H](C2CCCC2)N(C)C(=O)C2(CCCC2)NC(=O)[C@@H]2CCCN2C(=O)[C@H](CCc2ccc(C(F)(F)F)c(Cl)c2)NC(=O)CN(C)C(=O)[C@H](Cc2ccc(C)cc2)N(CCC(C)(C)C)C(=O)[C@@H]2CCN2C(=O)[C@H](C)N(C)C1=O [PP0087] ([NMeL]I[NMeA][Aze][X34][Sar][hPhe(3-Cl-4-CF3)]P[Ac5c][NMeGly(cPent)][NMeD]-Morpholide; lactam N-11) | C (A compound having a KD ratio of 0.1 or more and less than 3 is denoted as C) | C (A compound having a KD ratio of 0.1 or more and less than 3 is denoted as C) | – | – | – | –
2 | 296 | CCO[C@@H]1C[C@H]2C(=O)NC3(CCC3)C(=O)N(C)[C@@H](C3CCCC3)C(=O)N(C)[C@H](C(=O)N(C)C)CC(=O)N(CC)[C@@H](CC(C)C)C(=O)N[C@@H]([C@@H](C)CC)C(=O)N(C)CC(=O)N(C)[C@H]3CC(C)=CCN(C3=O)[C@@H](Cc3ccc(C(F)(F)F)cc3)C(=O)N(C)CC(=O)N[C@@H](CCc3cc(F)c(C(F)(F)F)c(F)c3)C(=O)N2C1 [PP1037] | C (A compound having a KD ratio of 0.1 or more and less than 3 is denoted as C) | C (A compound having a KD ratio of 0.1 or more and less than 3 is denoted as C) | – | – | – | –
3 | 7.9 | CCCC[C@H]1C(=O)N[C@@H]([C@@H](C)CC)C(=O)N(C)CC(=O)N(C)[C@H]2C/C=C\CCN(C2=O)[C@@H](Cc2ccc(C)cc2)C(=O)N(C)CC(=O)N[C@@H](CCc2cc(F)c(C(F)(F)F)c(F)c2)C(=O)N2C[C@H](OCC)C[C@H]2C(=O)NC2(CC(C)(C)C2)C(=O)N(C)[C@@H](C2CCCC2)C(=O)N(C)[C@H](C(=O)N(C)C)CC(=O)N1C [PP2800] | – | – | A (a compound having 10 or more and less than 20 is denoted as A) | A (a compound having 10 or more and less than 20 is denoted as A) | – | –
4 | 25.6 | CCO[C@@H]1C[C@H]2C(=O)NC3(CCC3)C(=O)N(C)[C@@H](C3CCCC3)C(=O)N(C)[C@H](C(=O)N(C)C)CC(=O)N(C)[C@@H](CC)C(=O)N[C@@H]([C@@H](C)CC)C(=O)N(C)CC(=O)N(C)[C@H]3CCCCN(C3=O)[C@@H](Cc3ccc(C(F)(F)F)cc3)C(=O)N(C)CC(=O)N[C@@H](CCc3ccc4ccsc4c3)C(=O)N2C1 [PP0888] | C (A compound having a KD ratio of 0.1 or more and less than 3 is denoted as C) | B (a compound having 3 or more and less than 10 is denoted as B) | – | – | – | –
5 | 29.7 | CCC[C@H]1C(=O)N[C@@H]([C@@H](C)CC)C(=O)N(C)CC(=O)N(C)[C@H]2C/C=C\CCN(C2=O)[C@@H](Cc2ccc(C)cc2)C(=O)N(C)CC(=O)N[C@@H](CCc2ccc(C(F)(F)F)c(OC)c2)C(=O)N2CC3(CC3)C[C@H]2C(=O)NC2(CC(C)(C)C2)C(=O)N(C)[C@@H](CC(C)C)C(=O)N(C)[C@H](C(=O)N(C)C)CC(=O)N1C [PP3013] | AA (a compound having 20 or more is denoted as AA) | B (a compound having 3 or more and less than 10 is denoted as B) | – | – | – | –
6 | 142 | CCCN1C(=O)CN(C)C(=O)[C@@H]2CCN2C(=O)[C@H](C2CCCC2)NC(=O)[C@H](CC(C)C)N(C)C(=O)C[C@@H](C(=O)N2CCOCC2)N(C)C(=O)[C@H](C2CCCC2)N(C)C(=O)C2(CCCC2)NC(=O)[C@@H]2CCCN2C(=O)[C@H](CCc2ccc(C(F)(F)F)c(Cl)c2)NC(=O)CN(C)C(=O)[C@@H]1Cc1ccc(C(F)(F)F)cc1 [PP0306] ([NMeL][Gly(cPent)][Aze][Sar][NPrPhe(4-CF3)][Sar][hPhe(3-Cl-4-CF3)]P[Ac5c][NMeGly(cPent)][NMeD]-Morpholide; lactam N-11) | B (a compound having 3 or more and less than 10 is denoted as B) | B (a compound having 3 or more and less than 10 is denoted as B) | – | – | – | –
7 | 11.7 | CCCN1C(=O)CN(C)C(=O)[C@@H]2CCN2C(=O)[C@H]([C@@H](C)CC)NC(=O)[C@H](CC(C)C)N(C)C(=O)C[C@@H](C(=O)N2CCOCC2)N(C)C(=O)[C@H](C2CCCC2)N(C)C(=O)C2(CCCC2)NC(=O)[C@@H]2C[C@@H](OC)CN2C(=O)[C@H](CCc2ccc(C(F)(F)F)c(Cl)c2)NC(=O)CN(C)C(=O)[C@@H]1Cc1ccc(C(F)(F)F)cc1 [PP0309] ([NMeL]I[Aze][Sar][NPrPhe(4-CF3)][Sar][hPhe(3-Cl-4-CF3)][Hyp](Me)[Ac5c][NMeGly(cPent)][NMeD]-Morpholide; lactam N-11) | B (a compound having 3 or more and less than 10 is denoted as B) | B (a compound having 3 or more and less than 10 is denoted as B) | – | – | – | –
8 | 70.7 | CC[C@H](C)[C@@H]1NC(=O)[C@@H](CC(C)C)N(C)C(=O)C[C@@H](C(=O)N(C)C)N(C)C(=O)[C@@H](C2CCCC2)N(C)C(=O)C2(CCCC2)NC(=O)[C@@H]2CCCN2C(=O)[C@H](CCc2ccc(C(F)(F)F)c(Cl)c2)NC(=O)CN(C)C(=O)[C@@H](Cc2ccc(C(F)(F)F)cc2)N2CC/C=C\CCN(CC2=O)C(=O)CN(C)C1=O [PP0619] | – | – | – | – | C (A compound having a KD ratio of 0.1 or more and less than 3 is denoted as C) | C (A compound having a KD ratio of 0.1 or more and less than 3 is denoted as C)
9 | 25.2 | CCO[C@@H]1C[C@H]2C(=O)NC3(CCC3)C(=O)N(C)[C@@H](C3CCCC3)C(=O)N(C)[C@H](C(=O)N3CCOCC3)CC(=O)N(C)[C@@H](CC(C)C)C(=O)N[C@@H]([C@@H](C)CC)C(=O)N(C)CC(=O)N(C)[C@H]3CCCCCN(C3=O)[C@@H](Cc3ccc(F)c(F)c3)C(=O)N(C)CC(=O)N[C@@H](CCc3cc(F)c(C(F)(F)F)c(F)c3)C(=O)N2C1 [PP0917] | B (a compound having 3 or more and less than 10 is denoted as B) | B (a compound having 3 or more and less than 10 is denoted as B) | – | – | – | –
10 | 56.6 | CCCN1C(=O)CN(C)C(=O)[C@@H]2CCN2C(=O)[C@H]([C@@H](C)CC)NC(=O)[C@H](CC(C)C)N(C)C(=O)C[C@@H](C(=O)N2CCOCC2)N(C)C(=O)[C@H](C2CCCC2)N(C)C(=O)C2(CCCC2)NC(=O)[C@@H]2COCCN2C(=O)[C@H](CCc2ccc(C(F)(F)F)c(Cl)c2)NC(=O)CN(C)C(=O)[C@@H]1Cc1ccc(C(F)(F)F)cc1 [PP0313] ([NMeL]I[Aze][Sar][NPrPhe(4-CF3)][Sar][hPhe(3-Cl-4-CF3)][Morpholine(3S-CO)][Ac5c][NMeGly(cPent)][NMeD]-Morpholide; lactam N-11) | B (a compound having 3 or more and less than 10 is denoted as B) | C (A compound having a KD ratio of 0.1 or more and less than 3 is denoted as C) | – | – | – | –
11 | 73.8 | CC[C@H](C)[C@@H]1NC(=O)[C@H](CC(C)C)N(C)C(=O)C[C@@H](C(=O)N(C)C)N(C)C(=O)[C@H](C2CCCC2)N(C)C(=O)C2(CCCC2)NC(=O)[C@@H]2CCCN2C(=O)[C@H](CCc2ccc(C(F)(F)F)c(Cl)c2)NC(=O)CN(C)C(=O)[C@H](Cc2ccc(C)cc2)N2CC/C=C(/C)C[C@@H](C2=O)N(C)C(=O)CN(C)C1=O [PP0616] | – | – | – | – | B (a compound having 3 or more and less than 10 is denoted as B) | B (a compound having 3 or more and less than 10 is denoted as B)
12 | 6.7 | CCCN1C(=O)[C@@H]2CCN2C(=O)[C@H]2N(CC2(C)C)C(=O)[C@H]([C@@H](C)CC)NC(=O)[C@H](CC(C)C)N(C)C(=O)C[C@@H](C(=O)N2CCOCC2)N(C)C(=O)[C@H](C2CCCC2)N(C)C(=O)C2(CCCC2)NC(=O)[C@@H]2CCCN2C(=O)[C@H](CCc2ccc(C(F)(F)F)c(Cl)c2)NC(=O)CN(C)C(=O)[C@@H]1Cc1ccc(C(F)(F)F)cc1 [PP0277] ([NMeL]I[X44][Aze][NPrPhe(4-CF3)][Sar][hPhe(3-Cl-4-CF3)]P[Ac5c][NMeGly(cPent)][NMeD]-Morpholide; lactam N-11) | C (A compound having a KD ratio of 0.1 or more and less than 3 is denoted as C) | C (A compound having a KD ratio of 0.1 or more and less than 3 is denoted as C) | – | – | – | –
13 | 49.9 | CC[C@H](C)[C@@H]1NC(=O)[C@H](CC(C)C)N(C)C(=O)C[C@@H](C(=O)N2CCOCC2)N(C)C(=O)[C@H](C2CCCC2)N(C)C(=O)C2(CC2)NC(=O)[C@@H]2CCCN2C(=O)[C@H](CCc2ccc(C(F)(F)F)c(Cl)c2)NC(=O)CN(C)C(=O)[C@H](Cc2ccc(C(F)(F)F)cc2)N(CC)C(=O)CN(C)C(=O)CN(C)C1=O [PP0234] ([NMeL]I[Sar][Sar][NEtPhe(4-CF3)][Sar][hPhe(3-Cl-4-CF3)]P[Ac3c][NMeGly(cPent)][NMeD]-Morpholide; lactam N-11) | B (a compound having 3 or more and less than 10 is denoted as B) | C (A compound having a KD ratio of 0.1 or more and less than 3 is denoted as C) | – | – | – | –
